Experimental data reported in patent US20260265246A1 (ICAHN SCHOOL OF MEDICINE AT MOUNT SINAI, priority 2021, published 2026).
Read-outs that look alike come from different tables or passages of the source.

Key:
[1] = biological target: T1, 5HT2A receptor (Homo sapiens, UniProt P28223); test: cell-based; design: expressed in transfected cells; host or cells: HEK293T cells, transient co-transfection; settings: for Emax: HEK-293T
[2] = biological target: T1, 5HT2A receptor; test: biochemical; type: binding; design: expressed in transfected cells; crude membranes
[3] = biological target: T1, 5HT2A receptor; test: cell-based; design: expressed in transfected cells; host or cells: HEK293T cells, transient co-transfection; settings: for Emax: HEK-293T; remark: listed apart in the source
[4] = 5HT2A β-Arr EC50 (nM), BRET1 beta-arrestin2 recruitment, HEK293T cells
[5] = 5HT2A Ki (nM), secondary radioligand binding, Ki from IC50 by Cheng-Prusoff
[6] = 5HT2A Gq EC50 (nM), BRET2 Gαq dissociation, HEK293T cells
[7] = BRET1 beta-arrestin2 recruitment, HEK293T, normalized to 5-HT, read-out: 5HT2A β-Arr Emax (%)
[8] = 5HT2A Ki (nM), secondary binding assay, Cheng-Prusoff
[9] = BRET2 Gαq dissociation, HEK293T, read-out: 5HTA Gq EC50
[10] = BRET2 Gαq dissociation, HEK293T, normalized to 5-HT, read-out: 5HTA Gq Emax (%)
[11] = 5HT2A β-Arr EC50 (nM), BRET1 beta-arrestin2 recruitment, HEK293T
[12] = 5HTA Gq EC50 (nM), BRET2 Gαq dissociation, HEK293T
[13] = BRET1 beta-arrestin2 recruitment, HEK293T cells, normalized to 5-HT, read-out: 5HT2A β-Arr Emax (%)
[14] = BRET2 Gαq dissociation, HEK293T cells, normalized to 5-HT, read-out: 5HT2A Gq Emax (%)
[15] = BRET1 beta-arrestin2 recruitment, HEK293T cells, read-out: 5HT2A β-Arr EC50
[16] = secondary radioligand binding, Ki from IC50 by Cheng-Prusoff, read-out: 5HT2A Ki
[17] = BRET2 Gαq dissociation, HEK293T cells, read-out: 5HT2A Gq EC50

T1 sequence (P28223 whole entry): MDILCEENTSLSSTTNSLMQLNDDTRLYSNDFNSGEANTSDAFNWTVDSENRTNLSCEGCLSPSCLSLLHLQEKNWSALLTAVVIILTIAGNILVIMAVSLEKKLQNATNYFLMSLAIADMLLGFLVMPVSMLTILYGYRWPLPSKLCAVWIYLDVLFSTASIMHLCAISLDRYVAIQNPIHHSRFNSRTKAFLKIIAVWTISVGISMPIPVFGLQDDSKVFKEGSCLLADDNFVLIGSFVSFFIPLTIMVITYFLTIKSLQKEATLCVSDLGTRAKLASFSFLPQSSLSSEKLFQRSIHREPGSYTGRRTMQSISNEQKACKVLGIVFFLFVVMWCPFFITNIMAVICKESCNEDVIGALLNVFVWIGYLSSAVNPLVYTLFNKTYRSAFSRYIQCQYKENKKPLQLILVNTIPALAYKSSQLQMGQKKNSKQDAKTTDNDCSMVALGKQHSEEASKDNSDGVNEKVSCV

| Structure (SMILES) | EC50 [1, 4] [nM] | Ki [2, 5] [nM] | EC50 [3, 6] [nM] | Emax [1, 13] [%] | Emax [3, 14] [%] | other results |
| --- | --- | --- | --- | --- | --- | --- |
| Clc1cccc2c(C3CCCNC3)n[nH]c12 (stereo not drawn) [Example 114, 7-chloro-3-(piperidin-3-yl)-1H-indazole] | 468 | 1240 | 290 |  |  | Emax ([1]; read-out: 5HT2A β-Arr Emax (%), BRET1 beta-arrestin2 recruitment, HEK293T cells, normalized to 5-HT): 29.3%; Emax ([3]; read-out: 5HT2A Gq Emax (%), BRET2 Gαq dissociation, HEK293T cells, normalized to 5-HT): 74.5% |
| CCCN1CCC=C(c2c[nH]c3c(F)cccc23)C1 [Example 156, 7-fluoro-3-(1-propyl-1,2,5,6-tetrahydropyridin-3-yl)-1H-indole] |  |  |  |  |  | EC50 ([1]; BRET1 beta-arrestin2 recruitment, HEK293T, read-out: 5HT2A β-Arr EC50): 61.2 nM; Emax [1, 7]: 58.4%; Ki [2, 8]: 164 nM; EC50 [3, 9]: 20.2 nM; Emax [3, 10]: 103% |
| Clc1cccc2c(C3=CCCN(C4CC4)C3)n[nH]c12 [Example 166, 7-chloro-3-(1-cyclopropyl-1,2,5,6-tetrahydropyridin-3-yl)-1H-indazole] |  |  |  |  |  | EC50 [1, 11]: 120 nM; Emax ([1]; read-out: 5HT2A β-Arr Emax (%), BRET1 beta-arrestin2 recruitment, HEK293T, normalized to 5-HT): 24.9%; Ki [2, 8]: 307 nM; EC50 [3, 12]: 47.1 nM; Emax ([3]; read-out: 5HTA Gq Emax (%), BRET2 Gαq dissociation, HEK293T, normalized to 5-HT): 64% |
| Cc1ccc2c(C3=CCCNC3)n[nH]c2c1 [Example 76, 6-methyl-3-(1,2,5,6-tetrahydropyridin-3-yl)-1H-indazole] | 1500 | 2460 | 118 | 88.7 | 93.6 |  |
| CN1CCC=C(c2c[nH]c3c(F)cccc23)C1 [Example 56, 7-fluoro-3-(1-methyl-1,2,5,6-tetrahydropyridin-3-yl)-1H-indole] |  |  |  | 49.5 | 96.9 | EC50 [1, 15]: 57.7 nM; Ki [2, 16]: 59.8 nM; EC50 [3, 17]: 16.8 nM |
| N#Cc1ccc2c(C3=CCCNC3)n[nH]c2c1 [Example 79, 3-(1,2,5,6-tetrahydropyridin-3-yl)-1H-indazole-6-carbonitrile] | 1710 | 441 | 874 | 82.1 | 48.6 |  |
| Clc1ccc2c(C3=CCCNC3)c[nH]c2c1 [Example 31, 6-chloro-3-(1,2,5,6-tetrahydropyridin-3-yl)-1H-indole] | 1500 | 160 | 106 | 112 | 93 |  |
| CN1CCC=C(c2n[nH]c3cccc(F)c23)C1 [Example 98, 4-fluoro-3-(1-methyl-1,2,5,6-tetrahydropyridin-3-yl)-1H-indazole] | 483 | 835 | 105 | 54 | 58.5 |  |
| CN1CCC=C(c2c[nH]c3ncc(-c4ccccc4)cc23)C1 [Example 8, 3-(1-methyl-1,2,5,6-tetrahydropyridin-3-yl)-5-phenyl-1H-pyrrolo[2,3-b]pyridine] | 811 | 156 | 67 | 58.3 | 95.5 |  |
| Cc1ccnc2c(C3=CCCN(C)C3)c[nH]c12 [Example 137, 7-methyl-3-(1-methyl-1,2,5,6-tetrahydropyridin-3-yl)-1H-pyrrolo[3,2-b]pyridine] |  |  |  |  |  | EC50 [1, 11]: 372 nM; Emax [1, 7]: 44.6%; Ki [2, 8]: 531 nM; EC50 [3, 12]: 57.6 nM; Emax [3, 10]: 74.4% |
| CCc1cccc2c(C3=CCCN(C4CC4)C3)n[nH]c12 [Example 238, 3-(1-cyclopropyl-1,2,5,6-tetrahydropyridin-3-yl)-7-ethyl-1H-indazole] |  |  |  |  |  | EC50 [1, 11]: 1020 nM; Emax [1, 7]: 50%; Ki [2, 8]: 634 nM; EC50 [3, 12]: 101 nM; Emax [3, 10]: 42.2% |
| Clc1cccc2c(C34CNCC3C4)c[nH]c12 (single isomer, unassigned) [Example 277, 3-(3-azabicyclo[3.1.0]hexan-1-yl)-7-chloro-1H-indole] |  |  |  |  |  | EC50 [1, 11]: 212 nM; Emax [1, 7]: 25.4%; Ki ([2]; secondary binding assay, Cheng-Prusoff, read-out: 5HT2A Ki): 80.5 nM; 5HTA Gq Emax (%) ([3]; BRET2 Gαq dissociation, HEK293T, normalized to 5-HT): 86.5%; EC50 [3, 9]: 83.8 nM |
| N#Cc1ccc2[nH]nc(C3=CCCNC3)c2c1 [Example 86, 3-(1,2,5,6-tetrahydropyridin-3-yl)-1H-indazole-5-carbonitrile] | 354 | 370 |  | 95.1 | 90.2 | EC50 [3, 17]: 15.9 nM |
| CN1CCC=C(c2n[nH]c3c(Cl)cccc23)C1 [Example 106, 7-chloro-3-(1-methyl-1,2,5,6-tetrahydropyridin-3-yl)-1H-indazole] | 176 | 332 |  | 66.8 | 85.5 | EC50 [3, 17]: 39.1 nM |
| CN1CCC=C(c2c[nH]c3c(C(F)(F)F)cccc23)C1 [Example 59, 3-(1-methyl-1,2,5,6-tetrahydropyridin-3-yl)-7-(trifluoromethyl)-1H-indole] |  |  |  | 56.9 | 81.7 | EC50 [1, 15]: 75.5 nM; Ki [2, 16]: 25.8 nM; EC50 [3, 17]: 17.8 nM |
